PMC6286365 (Scientific Reports, 2018)
“Also recorded” adds a separate entry of the source.

Tests used:
GFAP-GFP mice [1] = assay: Striatal IL-1β brain inflammation model: GFP-labeled astrocyte-derived EVs in plasma; format: in vivo, mouse; conditions: 10 mg/kg IP 0.5 h before IL-1β; 2 h post IL-1β
Procedure: As we have previously shown[11],[18], striatal injection of IL-1β in mice expressing GFP-GFAP in astroglia triggers a release of GFP-labelled EVs that rapidly enter into plasma, resulting in cytokine upregulation in liver and peripheral immune cell migration into brain[11]. […] There were two groups of mice: the first group was sacrificed 2 h after IL-1β administration by heart puncture, and GFP-labeled circulating EVs were measured with liver cytokines. […] Counting of astrocyte-released EV (GFP+) from blood and liver cytokine analysis was conducted by single injection of DPTIP. Although release of EVs from astrocytes can be initiated immediately after intracranial injection of IL-1β, infiltration of neutrophils in brain parenchyma occurred 12h-24h after the IL-1β injection. […] Western analysis using the isolated exosomal fraction confirmed the presence of CD63 (transmembrane protein), TSG101 (cytosolic protein) and Flotilin-1 (lipid raft associated protein), commonly used EV markers[19],[20]. The GFP signal was an indication that these EVs originated in brain[11] while lack of mitofilin and α-actinin signals indicated the vesicles were not of mitochondrial[21] or cytoskeletal[22] origin respectively (Fig. 6B).
(§1) Compounds were given 0.5 h before IL-1β dosing. One group of mice was sacrificed 2 h after IL-1β administration to determine effects of the various treatments on extracellular vesicles (EVs) releases from brain and liver cytokine analysis. […] (C) Liver cytokine levels under different treatments as measured by qRT-PCR of RNA isolated from fresh frozen liver tissue. Samples were analyzed in triplicate. **p < 0.01 and *p < 0.05 compared to saline control; ^##p < 0.01 and ^#p < 0.05 compared to IL1-β group. (D) Neutrophil levels in brain as measured by immunohistochemistry using coronal brain sections and Ly6b antibody. (E) Quantitation of (D); **p < 0.01 compared to saline control; ^##p < 0.01 compared to IL1-β group. […]

[2] = In vivo pharmacokinetics, plasma and brain, 10 mg/kg IP; conditions: male, CD1, mouse, mice
Procedure: Pharmacokinetic studies in mice were approved by the Animal Care and Use Committee at Johns Hopkins University. Male CD1 mice between 25 and 30 g were obtained from Harlan and maintained on a 12 h light−dark cycle with ad libitum access to food and water. Test compounds were dosed at 10 mg/kg IP at a dosing volume of 10 mL/kg. Blood and brain tissue were collected at 0.25, 0.5, 1, 2, 4 and 6 h post dose (n = 3 per time point). Blood was obtained via cardiac puncture and plasma was harvested from blood by centrifugation at 3000 × g for 15 min and stored at −80 °C. Brain tissues were harvested following blood collection and immediately snap frozen in liquid nitrogen and stored at −80 °C until LC−MS analysis. […] The samples were vortex mixed for 30 secs and centrifuged at 10000 × g for 10 min at 4 °C. Fifty microliter of the supernatant was diluted with 50 µL water and transferred to a 250 µL polypropylene vial sealed with a Teflon cap and analyzed via LC/MS/MS as described above. Plasma concentrations (pmol/mL) as well as tissue concentrations (pmol/g) were determined and plots of mean plasma concentration versus time were constructed for PK analysis. Non-compartmental-analysis modules in Phoenix WinNonlin version 7.0 (Certara USA, Inc., Princeton, NJ) were used to assess pharmacokinetic parameters including maximal concentration (Cmax), time to Cmax (Tmax), and area under the curve extrapolated to infinity (AUC0-∞).

GFAP-GFP mice [3] = assay: Striatal IL-1β brain inflammation model: liver cytokines by qRT-PCR; format: in vivo, mouse; conditions: 10 mg/kg IP; 2 h post IL-1β
Procedure: As we have previously shown[11],[18], striatal injection of IL-1β in mice expressing GFP-GFAP in astroglia triggers a release of GFP-labelled EVs that rapidly enter into plasma, resulting in cytokine upregulation in liver and peripheral immune cell migration into brain[11]. […] There were two groups of mice: the first group was sacrificed 2 h after IL-1β administration by heart puncture, and GFP-labeled circulating EVs were measured with liver cytokines. […] Counting of astrocyte-released EV (GFP+) from blood and liver cytokine analysis was conducted by single injection of DPTIP. Although release of EVs from astrocytes can be initiated immediately after intracranial injection of IL-1β, infiltration of neutrophils in brain parenchyma occurred 12h-24h after the IL-1β injection. […]
as §1, with “dosing.” for “dosing. One group of mice was sacrificed 2 h after IL-1β administration to determine effects of the various treatments on extracellular vesicles (EVs) releases from brain and liver cytokine analysis.”

human nSMase2 = molecular target: T1, human nSMase2 (Homo sapiens, UniProt Q9NY59); assay: Mode of inhibition: rate vs SM concentration at several DPTIP concentrations (Michaelis-Menten fits); format: biochemical; design: Full length human nSMase2 cDNA with a C-terminal Flag tag; host or cells: HEK293 cells, G418-selected; crude sonicated cell lysate used as the enzyme preparation; conditions: with respect to SM
T1 sequence (Q9NY59 1-655): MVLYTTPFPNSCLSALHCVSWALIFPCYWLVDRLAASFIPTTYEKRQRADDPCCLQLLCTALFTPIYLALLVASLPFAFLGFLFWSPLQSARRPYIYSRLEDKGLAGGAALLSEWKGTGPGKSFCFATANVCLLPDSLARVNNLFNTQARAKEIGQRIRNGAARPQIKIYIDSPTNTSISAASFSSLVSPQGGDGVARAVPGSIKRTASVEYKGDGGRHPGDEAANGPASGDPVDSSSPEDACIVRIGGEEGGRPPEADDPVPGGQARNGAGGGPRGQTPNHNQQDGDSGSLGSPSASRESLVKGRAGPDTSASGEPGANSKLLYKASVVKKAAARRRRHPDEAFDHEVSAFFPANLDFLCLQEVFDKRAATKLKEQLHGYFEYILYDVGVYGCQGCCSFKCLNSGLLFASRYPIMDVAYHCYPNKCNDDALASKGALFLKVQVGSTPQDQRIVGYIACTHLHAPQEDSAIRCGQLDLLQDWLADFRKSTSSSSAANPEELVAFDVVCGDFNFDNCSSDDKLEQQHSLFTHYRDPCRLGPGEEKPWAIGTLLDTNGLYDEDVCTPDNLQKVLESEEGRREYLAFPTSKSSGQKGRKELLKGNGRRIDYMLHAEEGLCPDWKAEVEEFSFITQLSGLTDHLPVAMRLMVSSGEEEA

COc1cc(-c2nc(-c3cccs3)c(-c3ccccc3)[nH]2)cc(OC)c1O [DPTIP, 2,6-Dimethoxy-4-(5-Phenyl-4-Thiophen-2-yl-1H-Imidazol-2-yl)-Phenol]
reduction of number of astrocyte-derived EVs (GFAP-GFP mice [1]): 51 ± 13%
Kp ([2]; brain and plasma, read-out: AUCbrain/AUCplasma): 0.26
AUC(0-inf) ([2]; brain): 2.6 ± 0.5 µM·h
Tmax ([2]; brain): 30 min
AUC(0-inf) ([2]; plasma): 10 ± 1 µM·h
Tmax ([2]; plasma): 30 min
effect on upregulation of liver cytokines upon IL-1β treatment (GFAP-GFP mice [3]): reduction of cytokine upregulation in liver; also recorded: inhibited
mode of inhibition (human nSMase2): noncompetitive
